Results: the supplement of paper PMC10307832

Columns and labels:
Experiment in all cases: relative viability (nuclei count vs DMSO), 5 days (fraction); higher = more cells survive
[1] = compound: C1CNCCC1C2=CC(=NN2)C3=CC=NC=C3 + N=C(N)NC(=N)NCCc1ccccc1 [Phenformin] (partner 250 µM)
In short: (§1)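 Relative viability equals treated-well nuclei counts divided by vehicle-well nuclei counts. Counts came from 4× images of lung cancer cell lines grown in 1536-well plates for 5 days after pin-tool dosing on the day after seeding. Dosing used one drug alone or a fixed anchor-drug dose plus five library-drug doses (not always all listed) in √10 steps, and values are medians of duplicate plates.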

[2] = compound: C[C@@H](N)c1ccc(C(=O)Nc2ccnc3[nH]ccc23)cc1 + C[C@@H](Oc1cc(-c2cnn(C3CCNCC3)c2)cnc1N)c1c(Cl)ccc(F)c1Cl [Crizotinib] (partner 1 µM)
In short: as §1

Tanzisertib + Lapatinib = compound: O[C@H]1CC[C@H](Nc2ncc3nc(Nc4c(F)cc(F)cc4F)n([C@H]4CCOC4)c3n2)CC1 [Tanzisertib] + CS(=O)(=O)CCNCc1ccc(-c2ccc3ncnc(Nc4ccc(OCc5cccc(F)c5)c(Cl)c4)c3c2)o1 [Lapatinib] (partner 2 µM)
In short: as §1

[3] = compound: C[C@@H](N)c1ccc(C(=O)Nc2ccnc3[nH]ccc23)cc1 + CCNC(=O)c1noc(-c2cc(C(C)C)c(O)cc2O)c1-c1ccc(CN2CCOCC2)cc1 [Luminespib] (partner 0.01 µM)
In short: as §1

| Cell Line | relative viability ([1]; first compound 0.08 µM) | relative viability ([1]; first compound 0.8 µM) | relative viability ([1]; first compound 2.53 µM) | relative viability ([1]; first compound 8 µM) | relative viability ([2]; first compound 0.04 µM) | relative viability ([2]; first compound 0.1265 µM) | relative viability ([2]; first compound 0.4 µM) | relative viability ([2]; first compound 4 µM) | relative viability (Tanzisertib + Lapatinib; first compound 0.08 µM) | relative viability (Tanzisertib + Lapatinib; first compound 0.253 µM) | relative viability (Tanzisertib + Lapatinib; first compound 0.8 µM) | relative viability (Tanzisertib + Lapatinib; first compound 2.53 µM) | relative viability (Tanzisertib + Lapatinib; first compound 8 µM) | relative viability ([3]; first compound 0.04 µM) | relative viability ([3]; first compound 0.1265 µM) | relative viability ([3]; first compound 0.4 µM) | relative viability ([3]; first compound 4 µM) | relative viability ([3]; first compound 1.265 µM) | relative viability ([2]; first compound 1.265 µM) |
| --- | --- | --- | --- | --- | --- | --- | --- | --- | --- | --- | --- | --- | --- | --- | --- | --- | --- | --- | --- |
| NCI-H1915 | 0.376 | 0.389 | 0.346 | 0.377 | 0.911 | 0.886 | 0.929 | 0.81 | 0.994 | 1 | 0.897 | 1.02 | 0.947 | 0.825 | 0.817 | 0.869 | 0.629 |  |  |
| NCI-H1944 | 0.18 | 0.185 | 0.209 | 0.173 | 1.12 | 1.1 | 1.12 | 0.94 | 0.949 | 0.935 | 0.862 | 0.873 | 0.796 | 0.857 | 0.722 | 0.753 | 0.6 | 0.746 |  |
| NCI-H1975 | 0.406 | 0.412 | 0.415 | 0.417 | 1.02 | 0.961 | 0.944 | 0.727 | 1.06 | 0.944 | 0.87 | 0.942 | 0.912 | 0.211 | 0.26 | 0.114 | 0.146 | 0.181 | 0.873 |
| NCI-H1993 | 0.497 | 0.488 | 0.547 | 0.533 | 0.867 | 0.743 |  | 0.878 | 0.815 | 0.846 | 0.914 | 0.777 | 0.748 | 0.857 | 0.923 | 0.806 | 0.684 | 0.928 | 0.877 |
| NCI-H2009 | 0.481 | 0.528 | 0.51 | 0.489 | 1.05 | 0.954 | 0.825 | 0.644 | 1.12 | 0.983 | 0.847 | 1.05 | 0.296 | 0.966 | 0.957 | 0.952 | 0.815 | 0.836 | 0.808 |
| NCI-H2023 | 0.357 | 0.411 | 0.498 | 0.423 | 0.738 | 0.596 | 0.733 | 0.544 | 0.92 | 0.809 | 0.867 | 0.925 | 0.261 | 1 | 0.881 | 0.832 | 0.543 | 0.689 | 0.741 |
| NCI-H2085 | 0.744 | 0.418 | 0.801 | 0.817 | 0.914 | 0.917 | 0.786 | 0.718 | 0.794 | 0.726 | 0.818 | 0.83 | 0.755 | 0.453 | 0.41 | 0.405 | 0.38 | 0.386 | 0.749 |
| NCI-H2087 | 0.459 | 0.479 | 0.496 | 0.479 | 0.824 | 0.538 | 0.581 | 0.386 | 1.19 | 1.08 | 1.2 | 1.07 | 0.974 | 0.152 | 0.153 | 0.126 | 0.174 |  | 0.788 |
| NCI-H2126 | 0.483 | 0.51 | 0.556 | 0.577 | 1.03 | 1.02 | 1.03 | 1.04 | 0.772 | 0.807 | 0.82 | 0.694 | 0.724 | 1 | 0.951 | 1.01 | 0.806 | 1.01 | 1.02 |
| NCI-H2170 | 0.433 | 0.394 | 0.456 | 0.441 | 1.21 | 1.08 | 1.18 | 1.08 | 0.285 | 0.252 | 0.26 | 0.262 | 0.253 | 0.735 | 0.708 | 0.623 | 0.502 | 0.649 | 1.21 |
| NCI-H2228 | 0.328 | 0.368 | 0.286 | 0.359 | 0.373 | 0.463 | 0.653 | 0.497 | 1.27 | 1.15 | 1.13 | 1.23 | 1.13 | 0.069 | 0.147 | 0.116 | 0.178 | 0.122 | 0.556 |
| NCI-H2347 | 0.398 | 0.225 | 0.412 | 0.48 | 0.668 | 0.775 | 0.776 | 0.605 | 1.05 | 1.01 | 0.971 | 1.07 | 0.869 | 0.469 | 0.308 | 0.784 | 0.795 |  | 0.714 |
| NCI-H2405 | 0.44 | 0.285 | 0.385 | 0.383 | 0.689 | 0.904 | 0.868 | 0.387 | 1.26 | 1.11 | 1.1 | 1.36 | 0.612 | 0.461 | 0.805 | 0.577 | 0.238 | 0.279 | 0.68 |
| NCI-H3122 | 0.329 | 0.414 | 0.402 | 0.364 | 0.286 | 0.295 | 0.264 | 0.303 | 1.03 | 1.01 | 0.998 | 1.06 | 1.06 | 0.0997 | 0.0955 | 0.113 | 0.124 | 0.162 | 0.346 |
| PC-3 [JPC-3] | 0.499 | 0.447 | 0.494 | 0.463 | 0.969 | 0.931 | 1.01 | 0.917 | 0.466 | 0.406 | 0.494 | 0.422 | 0.494 | 0.714 | 0.68 | 0.73 | 0.607 | 0.846 | 1.1 |
| PC-14 | 0.529 | 0.684 | 0.743 | 0.579 | 0.846 | 0.871 | 0.921 | 0.657 | 0.34 | 0.303 | 0.26 | 0.341 | 0.311 |  | 0.183 | 0.154 | 0.132 |  | 0.8 |
| RERF-LC-KJ | 0.391 | 0.429 | 0.438 | 0.406 | 0.808 | 0.893 | 0.788 | 0.684 | 0.872 | 0.873 | 0.884 | 0.8 | 0.892 | 1.22 | 1.3 | 1.26 | 1.25 | 1.2 | 0.858 |
